Measurements published in patent publication US9636311B2, “N,N′-di-1 naphthylguanidine HCl (NAGH) and N,N′-di-p-nitrophenylguanidine HCl (NAD) treatment for stroke at delayed timepoints” (University of South Florida, priority 2012, dated 2017).
Where two headings read alike, the source gives them in different places.

Key:
microglial cells = test: Inhibition of microglial migration evoked by ATP; type: cell-based
Procedure: (§1) FIG. 8 is a series of images confirming NAGH acts as a sigma receptor agonist. A) Concentration-response relationship for NAGH (closed circles) and DTG (open circles) inhibition of microglial migration evoked by 100 μM ATP. […] Points represent mean (±SEM) and for all points, n>9. B) Bar graph of the mean (±SEM) number of microglial cells migrating in response to 100 μM ATP when ATP was added alone (DMEM) or in the presence of 100 μM NAGH. Microglia were further exposed to no σ antagonist (Control), or the σ-1 antagonist, BD-1047 (10 μM, BD-1047), or the σ-2 antagonist, rimcazole (10 μM, Rimcazole). Asterisks denote significant difference between DMEM and NAGH within Control, BD-1047 and Rimcazole groups, respectively. Pound symbols indicate significant difference between Control, BD-1047 and Rimcazole within DMEM and NAGH groups, respectively. P<0.05 and n=24 for all groups.
as §1, with “8A illustrates the concentration-response” for “8 is a series of images confirming NAGH acts as a sigma receptor agonist. A) Concentration-response”, “FIG. 8B depicts a bar” for “B) Bar”

rats following MCAO = test: Brain infarction quantification (Nissl thionin) after MCAO; type: in vivo, rat; conditions: s.c. daily for 3 days from 24 h post-MCAO (NAGH 0.86 mg/kg, NAD 2.8 mg/kg); 30 days post MCAO; mean±SEM
Procedure: All animal procedures were performed according to the University of South Florida guidelines for the care and use of animals and protocols were reviewed and approved by the Institutional Animal Care and Use Committee and adhered to the NIH guidelines for the care and use of animals. Adult male Sprague Dawley rats (Harlan) weighing about 250-300 g at the time of surgery were used for the study. All animals were housed two per cage in a temperature controlled room, under a 12 hour light-dark cycle, and given access to water and food ad libitum. Animals were monitored daily for wellness and biweekly for weight loss. For the NAGH studies, a total of 84 animals were randomly assigned to 2 groups: MCAO only (n=42) and rat treated with NAGH (n=42) beginning 24 hour after MCAO.
MCAO surgeries were performed as described elsewhere (Vendrame M, Cassady C J, Newcomb J, Butler T, Pennypacker K R, Zigova T, et al. Stroke. 2004; 35:2390-2395). Briefly, rats were anesthetized with isoflurane, and the right common carotid and external carotid arteries were exposed using blunt dissection techniques. The vagus nerve was separated from common carotid artery and the external carotid artery was ligated proximally, and transected near the bifurcation. An embolus 40 mm in length (4.0 siliconized monofilament) was inserted into the external carotid artery and fed distally into the origin of the middle cerebral artery (˜25 mm from insertion) through the internal carotid artery. Blood samples were taken and analyzed using an i-STAT handheld analyzer for hemoglobin, hematocrit, ionized calcium, glucose, sodium, potassium, pH, pCO2, HCO3, TCO2, base excess, pO2, and O2. Cerebral blood flow was recorded using a Laser Doppler Monitor (Moor Instruments) to verify occlusion. Afterwards, the embolus was ligated permanently into the vessel and the neck incision was closed. Animals were treated with Ketoprofen IM (10 mg/kg) for three days post-surgery.
For the NAGH studies, vehicle or NAGH were prepared fresh each day. Daily subcutaneous injections (s.c) were administered beginning about 24 hours after MCAO and continued daily to about 72 hours post-surgery (FIG. 1). Animals received a total of 3 injections. A total of 84 animals were randomly assigned into 2 groups: Rats treated with vehicle (40% DMSO in sterile saline, n=42), or rats treated with 0.86 mg/kg NAGH (n=42).
For the studies with other compounds based on the structure of DTG, twenty-four hours after MCAO, the rats began a sigma agonist treatment regimen. Vehicle or drug was prepared fresh each day. […]
Infarct size was determined by Nissl thionin staining. […]

[1] = migration evoked by 100 μM ATP, two-component Langmuir-Hill fit

## Cl.N=C(Nc1cccc2ccccc12)Nc1cccc2ccccc12 [NAGH, N,N′-di-1-Naphthylguanidine hydrochloride]
Microglial cells; 100 μM ATP, via σ-1 and σ-2 receptors
  Microglial migration: blocks microglial migration
Microglial cells; [1]
  Emax, high affinity component: 0.43
  Emax, low affinity component: 0.57
  Hill coefficient, high affinity component: 2.2
  Hill coefficient, low affinity component: 0.80
Microglial cells; migration evoked by 100 μM ATP, two-component Langmuir-Hill fit, read-out: IC50, high affinity component
  IC50: 0.75 µM
Microglial cells; read-out: IC50, low affinity component
  IC50: 84 µM
Rats following MCAO
  Infarct volume (percent of hemisphere): 13.58±2.3%
